According to US20100267561A1, “HERBICIDAL PYRIDAZINONE DERIVATIVES” (priority 2007, published 2010):

How the values were obtained:
Test in all cases: Test A pre-/postemergence plant response
Type in all cases: in vivo
[1] = system: barnyardgrass (Echinochloa crus-galli)
Source text: (§1) Seeds of species selected from barnyardgrass (Echinochloa crus-galli), large crabgrass (Digitaria sanguinalis), giant foxtail (Setaria faberi), blackgrass (Alopecurus myosuroides), canarygrass (Phalaris minor), morningglory (Ipomoea coccinea), pigweed (Amaranthus retroflexus), velvetleaf (Abutilon theophrasti), wheat (Triticum aestivum), and corn (Zea mays) were planted into a blend of loam soil and sand and treated preemergence with a directed soil spray using test chemicals formulated in a non-phytotoxic solvent mixture which included a surfactant. At the same time these species were also treated with postemergence applications of test chemicals formulated in the same manner.
(§2) Plants ranged in height from 2 to 10 cm and were in the one- to two-leaf stage for the postemergence treatment. Treated plants and untreated controls were maintained in a greenhouse for approximately 10 days, after which time all treated plants were compared to untreated controls and visually evaluated for injury. Plant response ratings, summarized in Table A, are based on a 0 to 100 scale where 0 is no effect and 100 is complete control. A dash (-) response means no test results.

[2] = system: velvetleaf (Abutilon theophrasti)
Source text: as §1, §2

[3] = system: morningglory (Ipomoea coccinea)
Source text: as §1, §2

[4] = system: wheat (Triticum aestivum)
Source text: as §1, §2

[5] = system: pigweed (Amaranthus retroflexus)
Source text: as §1, §2

corn (Zea mays) = system: corn (Zea mays)
Source text: as §1, §2

[6] = system: large crabgrass (Digitaria sanguinalis)
Source text: as §1, §2

[7] = system: giant foxtail (Setaria faberi)
Source text: as §1, §2

[8] = Postemergence, 62 g ai/ha, 0 to 100 scale, 0 no effect, 100 complete control
[9] = Postemergence, 250 g ai/ha, 0 to 100 scale, 0 no effect, 100 complete control
[10] = Preemergence, 62 g ai/ha, 0 to 100 scale, 0 no effect, 100 complete control
[11] = Preemergence, 250 g ai/ha, 0 to 100 scale (0 no effect, 100 complete control)
[12] = Postemergence, 125 g ai/ha, 0 to 100 scale, 0 no effect, 100 complete control
[13] = Postemergence, 500 g ai/ha, 0 to 100 scale, 0 no effect, 100 complete control
[14] = Preemergence, 125 g ai/ha, 0 to 100 scale (0 no effect, 100 complete control)
[15] = Preemergence, 500 g ai/ha, 0 to 100 scale (0 no effect, 100 complete control)
[16] = Postemergence, 31 g ai/ha, 0 to 100 scale (0 no effect, 100 complete control)
[17] = Preemergence, 31 g ai/ha, 0 to 100 scale, 0 is no effect, 100 is complete control

Question: What does the source list for CCc1cc(-c2ccc(C(F)(F)F)cc2)nn1-c1c(OC(=O)C(C)(C)C)cnn(C)c1=O [Compound 18]?
Answer: Plant response rating, Barnyardgrass [1, 8]: 90; Plant response rating, Barnyardgrass [1, 9]: 100; Plant response rating, Barnyardgrass [1, 10]: 100; Plant response rating, Barnyardgrass [1, 11]: 100; Plant response rating, Velvetleaf [2, 8]: 0; Plant response rating, Velvetleaf [2, 9]: 0; Plant response rating, Velvetleaf [2, 10]: 0; Plant response rating, Velvetleaf [2, 11]: 0; Plant response rating, Morningglory [3, 8]: 0; Plant response rating, Morningglory [3, 9]: 0; Plant response rating, Morningglory [3, 10]: 0; Plant response rating, Morningglory [3, 11]: 0; Plant response rating, Wheat [4, 8]: 70; Plant response rating, Wheat [4, 9]: 80; Plant response rating, Wheat [4, 10]: 90; Plant response rating, Wheat [4, 11]: 100; Plant response rating, Pigweed [5, 8]: 0; Plant response rating, Pigweed [5, 9]: 0; Plant response rating, Pigweed [5, 10]: 0; Plant response rating, Pigweed [5, 11]: 0; Plant response rating, Corn (corn (Zea mays); [8]): 80; Plant response rating, Corn (corn (Zea mays); [9]): 90; Plant response rating, Corn (corn (Zea mays); [10]): 90; Plant response rating, Corn (corn (Zea mays); [11]): 90; Plant response rating, Crabgrass, Large [6, 8]: 80; Plant response rating, Crabgrass, Large [6, 9]: 100; Plant response rating, Crabgrass, Large [6, 10]: 100; Plant response rating, Crabgrass, Large [6, 11]: 100; Plant response rating, Foxtail, Giant [7, 8]: 90; Plant response rating, Foxtail, Giant [7, 9]: 100; Plant response rating, Foxtail, Giant [7, 10]: 100; Plant response rating, Foxtail, Giant [7, 11]: 100

Question: Which results are given for Cc1nc(-c2ccc(C(F)(F)F)cc2)sc1-c1c(O)cnn(C)c1=O [Compound 24]?
Answer: Plant response rating, Barnyardgrass [1, 12]: 0; Plant response rating, Barnyardgrass [1, 13]: 10; Plant response rating, Barnyardgrass [1, 14]: 0; Plant response rating, Barnyardgrass [1, 15]: 30; Plant response rating, Velvetleaf [2, 12]: 0; Plant response rating, Velvetleaf [2, 13]: 0; Plant response rating, Velvetleaf [2, 14]: 0; Plant response rating, Velvetleaf [2, 15]: 0; Plant response rating, Morningglory [3, 12]: 0; Plant response rating, Morningglory [3, 13]: 0; Plant response rating, Morningglory [3, 14]: 0; Plant response rating, Morningglory [3, 15]: 0; Plant response rating, Wheat [4, 12]: 0; Plant response rating, Wheat [4, 13]: 20; Plant response rating, Wheat [4, 14]: 0; Plant response rating, Wheat [4, 15]: 0; Plant response rating, Pigweed [5, 12]: 0; Plant response rating, Pigweed [5, 13]: 0; Plant response rating, Pigweed [5, 14]: 0; Plant response rating, Pigweed [5, 15]: 0; Plant response rating, Corn (corn (Zea mays); [12]): 0; Plant response rating, Corn (corn (Zea mays); [13]): 20; Plant response rating, Corn (corn (Zea mays); [14]): 0; Plant response rating, Corn (corn (Zea mays); [15]): 0; Plant response rating, Crabgrass, Large [6, 12]: 0; Plant response rating, Crabgrass, Large [6, 13]: 10; Plant response rating, Crabgrass, Large [6, 14]: 0; Plant response rating, Crabgrass, Large [6, 15]: 60; Plant response rating, Foxtail, Giant [7, 12]: 0; Plant response rating, Foxtail, Giant [7, 13]: 40; Plant response rating, Foxtail, Giant [7, 14]: 0; Plant response rating, Foxtail, Giant [7, 15]: 80

Question: How did the “Plant response rating, Barnyardgrass” value [1, 16] turn out when Cn1ncc(O)c(-c2nn(-c3ccc(C(F)(F)F)cn3)cc2Br)c1=O [Compound 71] was run?
Answer: 10

Question: And the “Plant response rating, Barnyardgrass” value [1, 12]?
Answer: 90

Question: And the “Plant response rating, Barnyardgrass” value [1, 17]?
Answer: 0

Question: What about the “Plant response rating, Barnyardgrass” value [1, 14] of the same compound?
Answer: 40

Question: And the “Plant response rating, Velvetleaf” value [2, 16]?
Answer: 0

Question: What about the “Plant response rating, Velvetleaf” value [2, 12] of the same compound?
Answer: 0

Question: And the “Plant response rating, Velvetleaf” value [2, 17]?
Answer: 0

Question: And the “Plant response rating, Velvetleaf” value [2, 14]?
Answer: 0

Question: And the “Plant response rating, Morningglory” value [3, 16]?
Answer: 0

Question: What about the “Plant response rating, Morningglory” value [3, 12] of the same compound?
Answer: 0

Question: What about the “Plant response rating, Morningglory” value [3, 17] of the same compound?
Answer: 0

Question: What about the “Plant response rating, Morningglory” value [3, 14] of the same compound?
Answer: 0

Question: And the “Plant response rating, Wheat” value [4, 16]?
Answer: 0

Question: What about the “Plant response rating, Wheat” value [4, 12] of the same compound?
Answer: 80

Question: What about the “Plant response rating, Wheat” value [4, 17] of the same compound?
Answer: 0

Question: What about the “Plant response rating, Wheat” value [4, 14] of the same compound?
Answer: 50

Question: And the “Plant response rating, Pigweed” value [5, 16]?
Answer: 0

Question: And the “Plant response rating, Pigweed” value [5, 12]?
Answer: 0

Question: And the “Plant response rating, Pigweed” value [5, 17]?
Answer: 0

Question: And the “Plant response rating, Pigweed” value [5, 14]?
Answer: 0

Question: What about the “Plant response rating, Corn” value (corn (Zea mays); [16]) of the same compound?
Answer: 0

Question: What about the “Plant response rating, Corn” value (corn (Zea mays); [12]) of the same compound?
Answer: 40

Question: What about the “Plant response rating, Corn” value (corn (Zea mays); [17]) of the same compound?
Answer: 0

Question: What about the “Plant response rating, Corn” value (corn (Zea mays); [14]) of the same compound?
Answer: 20

Question: What about the “Plant response rating, Crabgrass, Large” value [6, 16] of the same compound?
Answer: 20

Question: And the “Plant response rating, Crabgrass, Large” value [6, 12]?
Answer: 80

Question: What about the “Plant response rating, Crabgrass, Large” value [6, 17] of the same compound?
Answer: 10

Question: What about the “Plant response rating, Crabgrass, Large” value [6, 14] of the same compound?
Answer: 60

Question: What about the “Plant response rating, Foxtail, Giant” value [7, 16] of the same compound?
Answer: 30

Question: And the “Plant response rating, Foxtail, Giant” value [7, 12]?
Answer: 90

Question: What about the “Plant response rating, Foxtail, Giant” value [7, 17] of the same compound?
Answer: 0

Question: What about the “Plant response rating, Foxtail, Giant” value [7, 14] of the same compound?
Answer: 100
